Source: patent US10047051B2, “Substituted pyridines and method of use” (AbbVie S.á{acute over (.)}r.l., priority 2015, dated 2018)

Legend:
CFTR ΔF508 mutant = target: T1, CFTR ΔF508 mutant (Homo sapiens, UniProt P13569, DEL508-508); experiment: YFP-halide influx assay for the CFTR-ΔF508 mutation (CFBE41o- cells); type: cell-based; conditions: forskolin 10.67 μM; for EC50: from (1−F/F0) vs concentration plot
T1 construct: expressed in transfected cells; host or cells: CFBE41o- cells, adenoviral transduction
T1 sequence (P13569 with tags, fused parts or gaps DEL508-508): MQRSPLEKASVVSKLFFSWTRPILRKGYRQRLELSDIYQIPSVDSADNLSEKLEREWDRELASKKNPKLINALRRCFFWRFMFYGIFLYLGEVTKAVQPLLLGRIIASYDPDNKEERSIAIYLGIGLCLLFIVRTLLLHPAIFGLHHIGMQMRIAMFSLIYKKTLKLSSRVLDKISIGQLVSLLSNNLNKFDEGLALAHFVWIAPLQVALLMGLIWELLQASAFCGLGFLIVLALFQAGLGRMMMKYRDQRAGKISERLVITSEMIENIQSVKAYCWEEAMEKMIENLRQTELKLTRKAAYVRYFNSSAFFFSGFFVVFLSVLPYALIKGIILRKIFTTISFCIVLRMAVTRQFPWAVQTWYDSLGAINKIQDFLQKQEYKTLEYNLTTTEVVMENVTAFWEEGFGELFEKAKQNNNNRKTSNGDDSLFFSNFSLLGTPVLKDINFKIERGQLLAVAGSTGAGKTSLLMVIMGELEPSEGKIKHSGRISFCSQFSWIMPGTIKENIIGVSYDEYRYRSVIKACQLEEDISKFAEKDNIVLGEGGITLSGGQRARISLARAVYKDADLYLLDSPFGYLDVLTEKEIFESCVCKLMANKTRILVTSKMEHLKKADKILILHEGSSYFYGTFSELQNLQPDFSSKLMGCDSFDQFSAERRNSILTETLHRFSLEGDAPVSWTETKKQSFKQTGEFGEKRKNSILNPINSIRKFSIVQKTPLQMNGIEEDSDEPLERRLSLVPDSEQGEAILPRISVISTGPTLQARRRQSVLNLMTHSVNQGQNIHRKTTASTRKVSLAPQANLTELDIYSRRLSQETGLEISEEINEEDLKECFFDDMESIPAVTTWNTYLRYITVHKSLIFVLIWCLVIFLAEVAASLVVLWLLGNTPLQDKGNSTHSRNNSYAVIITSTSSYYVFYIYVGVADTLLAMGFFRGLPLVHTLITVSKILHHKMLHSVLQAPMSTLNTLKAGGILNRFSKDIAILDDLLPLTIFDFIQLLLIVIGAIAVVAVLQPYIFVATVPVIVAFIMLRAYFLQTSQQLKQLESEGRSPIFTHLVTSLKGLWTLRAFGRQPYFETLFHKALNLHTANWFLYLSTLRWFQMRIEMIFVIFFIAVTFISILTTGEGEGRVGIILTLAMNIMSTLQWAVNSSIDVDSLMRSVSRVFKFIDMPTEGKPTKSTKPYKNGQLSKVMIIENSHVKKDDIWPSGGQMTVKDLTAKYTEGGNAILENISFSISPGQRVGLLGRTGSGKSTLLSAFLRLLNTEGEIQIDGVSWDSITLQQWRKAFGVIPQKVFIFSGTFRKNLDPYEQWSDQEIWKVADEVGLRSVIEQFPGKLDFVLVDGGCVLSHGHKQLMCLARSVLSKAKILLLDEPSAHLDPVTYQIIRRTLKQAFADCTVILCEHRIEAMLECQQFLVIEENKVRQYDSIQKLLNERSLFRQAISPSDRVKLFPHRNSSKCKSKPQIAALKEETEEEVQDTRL
Excerpt: The YFP halide influx assay measured the functionality of the cystic fibrosis Transmembrane Conductance regulator (CFTR) channels in the cystic fibrosis bronchial epithelium cell line CFBE41o-. The assay was used to evaluate the capacity of compounds to increase the open probability of existing CFTR channels in the membrane. It makes use of the observation that the yellow fluorescent protein (YFP) variant YFP H148Q, I152L, F47L has its fluorescence substantially quenched by halide ions like Cl^− and I^− (Galietta, L. J. V., Haggie, P. M., Verkman, A. S., 2001. Green fluorescent protein-based halide indicators with improved chloride and iodide affinities. FEBS Lett. 499, 220-224. doi:10.1016/S0014-5793(01)02561-3; Nagai, T., Ibata, K., Park, E. S., Kubota, M., Mikoshiba, K., Miyawaki, A., 2002. A variant of yellow fluorescent protein with fast and efficient maturation for cell-biological applications. Nat. Biotechnol. 20, 87-90. doi: 10.1038/nbt0102-87).
For this purpose, CFBE41o-cells were seeded in 384 well plates (3000 CFBE cells/well). One day after seeding, the CFBE cells were transduced with adenoviral vectors that direct the expression of the CFTR ΔF508 mutant and of the YFP reporter. Cells were incubated at 27° C., 5% CO2 for 24 hours so as to allow for the proper folding and migration to the membrane of the CFTR channel or treated with a CFTR modulator during 24 hours at 37° C.
(§1) The I-induced quenching of fluorescence was recorded on an immediately after injection of iodide for 2 minutes on an FDSS/μCell (Hamamatsu). The capacity of a compound to increase the channel opening was directly correlated with the decrease in fluorescence, and was expressed as (1−(fluorescence after 36 seconds (F)/fluorescence before injection (F0))) and an EC50 was derived from a (1−F/F0) vs compound concentration plot.

CFTR G551D mutant = target: T2, CFTR G551D mutant (Homo sapiens, UniProt P13569, G551D); experiment: YFP-halide influx assay for the CFTR-G551D mutation (HEK293 cells); type: cell-based; conditions: forskolin 10.67 μM
T2 construct: expressed in transfected cells; host or cells: HEK293 cells, reverse transfection with plasmids
T2 sequence (P13569 whole entry G551D): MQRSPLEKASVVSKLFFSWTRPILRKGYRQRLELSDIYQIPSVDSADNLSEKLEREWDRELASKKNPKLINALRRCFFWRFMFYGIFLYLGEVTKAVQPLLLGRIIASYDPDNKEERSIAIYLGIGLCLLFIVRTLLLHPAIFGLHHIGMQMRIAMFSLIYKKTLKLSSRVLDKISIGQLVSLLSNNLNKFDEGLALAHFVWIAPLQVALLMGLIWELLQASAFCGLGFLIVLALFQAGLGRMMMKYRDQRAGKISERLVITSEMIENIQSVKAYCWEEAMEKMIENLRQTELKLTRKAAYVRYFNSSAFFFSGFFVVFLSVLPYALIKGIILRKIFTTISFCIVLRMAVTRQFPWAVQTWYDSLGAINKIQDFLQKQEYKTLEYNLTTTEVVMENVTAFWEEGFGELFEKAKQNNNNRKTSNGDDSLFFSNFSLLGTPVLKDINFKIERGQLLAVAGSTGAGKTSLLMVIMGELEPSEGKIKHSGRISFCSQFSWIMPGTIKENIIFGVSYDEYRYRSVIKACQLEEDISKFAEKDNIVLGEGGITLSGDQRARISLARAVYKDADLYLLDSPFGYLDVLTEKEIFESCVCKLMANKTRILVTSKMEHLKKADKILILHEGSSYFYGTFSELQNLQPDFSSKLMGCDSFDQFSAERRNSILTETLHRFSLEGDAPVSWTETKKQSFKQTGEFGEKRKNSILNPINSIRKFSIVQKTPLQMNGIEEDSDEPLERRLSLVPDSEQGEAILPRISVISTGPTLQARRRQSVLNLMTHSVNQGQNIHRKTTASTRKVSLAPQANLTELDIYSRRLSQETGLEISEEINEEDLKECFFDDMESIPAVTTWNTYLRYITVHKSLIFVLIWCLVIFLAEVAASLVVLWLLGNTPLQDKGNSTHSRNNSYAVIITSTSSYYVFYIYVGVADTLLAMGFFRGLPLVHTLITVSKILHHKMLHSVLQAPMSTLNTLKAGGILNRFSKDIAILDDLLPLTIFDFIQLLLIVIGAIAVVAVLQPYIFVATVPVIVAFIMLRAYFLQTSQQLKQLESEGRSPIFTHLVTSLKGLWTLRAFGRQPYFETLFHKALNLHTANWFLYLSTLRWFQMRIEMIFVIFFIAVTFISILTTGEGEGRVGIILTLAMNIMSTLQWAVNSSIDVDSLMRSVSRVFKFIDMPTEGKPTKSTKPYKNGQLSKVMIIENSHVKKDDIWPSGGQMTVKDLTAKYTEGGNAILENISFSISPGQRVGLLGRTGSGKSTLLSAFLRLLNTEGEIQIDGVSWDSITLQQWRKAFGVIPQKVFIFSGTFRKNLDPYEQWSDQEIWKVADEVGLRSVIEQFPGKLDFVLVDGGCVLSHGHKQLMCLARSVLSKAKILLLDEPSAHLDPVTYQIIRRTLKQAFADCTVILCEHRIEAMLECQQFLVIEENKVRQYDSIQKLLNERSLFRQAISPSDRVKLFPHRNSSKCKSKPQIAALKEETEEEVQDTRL
Excerpt: The YFP halide influx assay measured the functionality of the cystic fibrosis Transmembrane Conductance regulator (CFTR) channels. The assay was used to evaluate the capacity of compounds to increase the channel opening of existing mutant CFTR channels in the membrane. It makes use of the observation that the yellow fluorescent protein (YFP) variant YFP H148Q, I152L, F47L has its fluorescence substantially quenched by halide ions like Cl^− and I^− (Galietta, L. J. V., Haggie, P. M., Verkman, A. S., 2001. Green fluorescent protein-based halide indicators with improved chloride and iodide affinities. FEBS Lett. 499, 220-224. doi:10.1016/S0014-5793(01)02561-3).
For this purpose, HEK293-cells were seeded in 96 well plates. During seeding, the cells were reverse-transfected with plasmid vectors that direct the expression of the CFTR G551D mutant and of the YFP reporter. Cells were incubated at 37° C., 5% CO2 for 24 hours so as to allow for sufficient expression of the CFTR protein.
as §1, with “I^−-induced” for “I-induced”, “recorded” for “recorded on an”, “I^−” for “iodide”, “7 seconds.” for “2 minutes on an FDSS/μCell (Hamamatsu).”, “7” for “36”

Row | Structure (SMILES) | % Activation (CFTR ΔF508 mutant) | EC50 (CFTR ΔF508 mutant) | % Activation (CFTR G551D mutant) | EC50 (CFTR G551D mutant)
1 | CN(C1CC1)S(=O)(=O)c1cnc(C(=O)NCC(O)C(F)(F)F)c(N)c1 (stereo not shown) [Compound 94, 3-amino-5-[cyclopropyl(methyl)sulfamoyl]-N-(3,3,3-trifluoro-2-hydroxypropyl)pyridine-2-carboxamide] | 102.0% | 22.2 nM | 43.4% | 1140 nM
2 | COCC(=O)NNC(=O)c1ncc(S(=O)(=O)c2ccc(OC(F)(F)F)cc2)cc1N [Compound 286, 3-amino-N′-(methoxyacetyl)-5-{[4-(trifluoromethoxy)phenyl]sulfonyl}pyridine-2-carbohydrazide] | 79.7% | 88.1 nM | 26.8% | –
3 | COCCN(C1CC1)S(=O)(=O)c1cnc(C(=O)NCC(O)C(F)(F)F)c(N)c1 (stereo not shown) [Compound 108, 3-amino-5-[cyclopropyl(2-methoxyethyl)sulfamoyl]-N-(3,3,3-trifluoro-2-hydroxypropyl)pyridine-2-carboxamide] | 110.0% | 18.2 nM | 56.8% | 1700 nM
4 | Nc1cc(S(=O)(=O)c2ccc(C(F)(F)F)cc2)cnc1C(=O)NCCOC(F)(F)F [Compound 240, 3-amino-N-[2-(trifluoromethoxy)ethyl]-5-{[4-(trifluoromethyl)phenyl]sulfonyl}pyridine-2-carboxamide] | 98.1% | 137 nM | 50.6% | 949 nM
5 | COCCOCC(O)CNC(=O)c1ncc(S(=O)(=O)c2ccc(C(F)(F)F)cc2)cc1N (stereo not shown) [Compound 221, 3-amino-N-[2-hydroxy-3-(2-methoxyethoxy)propyl]-5-{[4-(trifluoromethyl)phenyl]sulfonyl}pyridine-2-carboxamide] | 101.7% | 54.5 nM | 55.6% | 1840 nM
6 | CCS(=O)(=O)c1cc(N)c(C(=O)NC[C@H](C)O)nc1C1CC1 [Compound 275, 3-amino-6-cyclopropyl-5-(ethylsulfonyl)-N-[(2S)-2-hydroxypropyl]pyridine-2-carboxamide] | 68.5% | > 667 nM | 4.2% | > 10000 nM
7 | Nc1cc(S(=O)(=O)c2ccc(OC(F)(F)F)cc2)cnc1C(=O)NC1CCOC1 (stereo not shown) [Compound 127, 3-amino-N-(tetrahydrofuran-3-yl)-5-{[4-(trifluoromethoxy)phenyl]sulfonyl}pyridine-2-carboxamide] | 107.0% | 82.9 nM | 61.2% | 1880 nM
8 | CO[C@H]1C[C@H](NC(=O)c2ncc(S(=O)(=O)c3ccc(OC(F)(F)F)cc3)cc2N)C1 [Compound 120, 3-amino-N-(trans-3-methoxycyclobutyl)-5-{[4-(trifluoromethoxy)phenyl]sulfonyl}pyridine-2-carboxamide] | 96.5% | 76.8 nM | 54.0% | 1110 nM
9 | Nc1cc(S(=O)(=O)c2ccc(OC(F)(F)F)cc2)cnc1C(=O)NNC(=O)CO [Compound 287, 3-amino-N′-(hydroxyacetyl)-5-{[4-(trifluoromethoxy)phenyl]sulfonyl}pyridine-2-carbohydrazide] | 83.4% | 256 nM | 24.3% | –
10 | Nc1cc(S(=O)(=O)N2CCC(F)(F)C2)cnc1C(=O)NCC(O)C(F)(F)F (stereo not shown) [Compound 186, 3-amino-5-[(3,3-difluoropyrrolidin-1-yl)sulfonyl]-N-(3,3,3-trifluoro-2-hydroxypropyl)pyridine-2-carboxamide] | 108.2% | 29.9 nM | 49.9% | > 3330 nM
11 | C[C@H](O)CNC(=O)c1ncc(S(=O)(=O)N2CCC[C@@H]2C)cc1N [Compound 266, 3-amino-N-[(2S)-2-hydroxypropyl]-5-{[(2S)-2-methylpyrrolidin-1-yl]sulfonyl}pyridine-2-carboxamide] | 105.0% | 180 nM | 21.9% | > 10000 nM
12 | Nc1cc(S(=O)(=O)N2CCOCC2)cnc1C(=O)NCC(O)C(F)(F)F (stereo not shown) [Compound 139, 3-amino-5-(morpholin-4-ylsulfonyl)-N-(3,3,3-trifluoro-2-hydroxypropyl)pyridine-2-carboxamide] | 96.6% | 61.2 nM | 40.6% | 5770 nM
13 | C[C@H](O)CNC(=O)c1ncc(S(=O)(=O)NCc2ccc(F)cc2)cc1N [Compound 267, 3-amino-5-[(4-fluorobenzyl)sulfamoyl]-N-[(2S)-2-hydroxypropyl]pyridine-2-carboxamide] | 59.3% | > 667 nM | 0.9% | > 10000 nM

Continued, values first:

Row | % Activation (CFTR ΔF508 mutant) | EC50 (CFTR ΔF508 mutant) | % Activation (CFTR G551D mutant) | EC50 (CFTR G551D mutant) | Structure (SMILES)
14 | 103.0% | 74.8 nM | 90.3% | 3150 nM | Nc1cc(S(=O)(=O)c2ccc(OC(F)(F)F)cc2)cnc1C(=O)N1CC[C@H](F)C1 [Compound 206, (3-amino-5-{[4-(trifluoromethoxy)phenyl]sulfonyl}pyridin-2-yl)[(3S)-3-fluoropyrrolidin-1-yl]methanone]
15 | 114.0% | 65.6 nM | 84.1% | 2210 nM | Nc1cc(S(=O)(=O)c2ccc(OC(F)(F)F)cc2)cnc1C(=O)N1CC2(CCOC2)C1 [Compound 125, (3-amino-5-{[4-(trifluoromethoxy)phenyl]sulfonyl}pyridin-2-yl)(6-oxa-2-azaspiro[3.4]oct-2-yl)methanone]
16 | 102.5% | 8.5 nM | 65.9% | 564 nM | Nc1cc(S(=O)(=O)c2ccccc2)cnc1C(=O)NCC(O)C(F)(F)F (stereo not shown) [Compound 244, 3-amino-5-(phenylsulfonyl)-N-(3,3,3-trifluoro-2-hydroxypropyl)pyridine-2-carboxamide]
17 | 83.2% | 35.3 nM | 50.9% | 425 nM | Nc1cc(S(=O)(=O)c2ccc(OC(F)(F)F)cc2)cnc1C(=O)NC1CC(F)(F)C1 [Compound 122, 3-amino-N-(3,3-difluorocyclobutyl)-5-{[4-(trifluoromethoxy)phenyl]sulfonyl}pyridine-2-carboxamide]
18 | 104.0% | 3.6 nM | 62.6% | 296 nM | Nc1cc(S(=O)(=O)N2CCOc3ccccc32)cnc1C(=O)NCC(O)C(F)(F)F (stereo not shown) [Compound 109, 3-amino-5-(2,3-dihydro-4H-1,4-benzoxazin-4-ylsulfonyl)-N-(3,3,3-trifluoro-2-hydroxypropyl)pyridine-2-carboxamide]
19 | 89.3% | 21.8 nM | 44.2% | > 3330 nM | Nc1cc(S(=O)(=O)c2ccc(F)cc2)cnc1C(=O)NCCC(O)C(F)(F)F (stereo not shown) [Compound 72, 3-amino-5-[(4-fluorophenyl)sulfonyl]-N-(4,4,4-trifluoro-3-hydroxybutyl)pyridine-2-carboxamide]
20 | 104.2% | 1.3 nM | 41.8% | 5770 nM | Nc1cc(S(=O)(=O)c2ccccc2)cnc1C(=O)N1CC(O)(C(F)(F)F)C1 [Compound 255, [3-amino-5-(phenyl sulfonyl)pyridin-2-yl][3-hydroxy-3-(trifluoromethyl)azetidin-1-yl]methanone]
21 | 102.0% | 5.7 nM | 85.0% | 1080 nM | COC[C@H](O)CNC(=O)c1ncc(S(=O)(=O)c2ccc(OC(F)(F)F)cc2)cc1N [Compound 69, 3-amino-N-[(2R)-2-hydroxy-3-methoxypropyl]-5-{[4-(trifluoromethoxy)phenyl]sulfonyl}pyridine-2-carboxamide]
